Test results as given in paper PMC10065799, “High-throughput profiling of sequence recognition by tyrosine kinases and SH2 domains using bacterial peptide display” (eLife, 2023).
One block for each molecule: values may come before it.

Key:
c-Src kinase domain [1] = biological target: T1, c-Src kinase domain (Homo sapiens, UniProt P12931); assay: ADP-Quest continuous fluorimetric kinase assay (Michaelis-Menten parameters and initial rates); type: biochemical
Source text: A fluorescence-based assay from Eurofins (ADP Quest) was used to measure the Michaelis-Menten kinetic parameters for phosphorylation of the consensus peptides by purified tyrosine kinase domains. In this assay, ADP production as a result of kinase activity is coupled to the production of resorufin, a fluorophore that emits signal at 590 nm. For all experiments, the assay reactions were set up as described in the provided assay kit protocol, in a 384 well plate format. The peptide solutions were serially diluted in 100 mM Tris, pH 8.0, and the kinases were diluted to 50 nM in buffer (10 mM HEPES, 100 mM NaCl, 1 mM TCEP, 5 mM MgCl2, 10% (v/v) glycerol). The final reaction mixtures contained 10 nM of kinase with 100 μM of ATP. Reactions were initiated with the addition of 1 mM ATP into a 50 μL reaction mixture for a final concentration of 100 μM ATP. Phosphorylation reaction progress was monitored by measuring fluorescence at excitation 530 nm and emission 590 nm every 2 min at 37 °C on a plate reader (BioTek Synergy Neo 2). The fluorescence units (RFU) were converted to μM ADP by comparison to a standard curve, and the initial rates were extracted from the linear regime of the reaction progress curves. Initial rates were also measured for samples containing each kinase but lacking a peptide substrate, to account for background ATP hydrolysis. This background rate was subtracted from the rates measured in the presence of peptide. The subtracted rates were plotted as a function of substrate concentration and fit to the Michaelis-Menten equation to extract kcat and KM values.

c-Src kinase domain [2] = biological target: T1, c-Src kinase domain; assay: RP-HPLC assay to measure peptide phosphorylation kinetics; type: biochemical; conditions: purified peptide substrate
Procedure: To validate the enrichment scores observed in the c-Src screening data, the phosphorylation rates were measured in vitro with the purified catalytic domain of c-Src and synthetic 11-residue peptides derived from sequences in the pTyr-Var library. […] Reactions were initiated by adding 1 mM ATP. At various time points, 100 μL aliquots were removed and quenched by the addition of EDTA to a final concentration of 25 mM. Each time point sample was analyzed by analytical RP-HPLC, monitoring absorbance at 214 nm. Forty μL of each time point was injected onto a C18 column (ZORBAX 300 SB-C18, 5 μm, 4.6x150 mm). The solvent system used was water with 0.1% trifluoroacetic acid (solvent A) and acetonitrile with 0.1% trifluoroacetic acid (solvent B). […] The fractional product peak area was plotted as a function of reaction time, and the initial linear regime of this plot was fitted to a straight line to determine a reaction rate. Rates were corrected for substrate and enzyme concentration. Reactions were done in triplicate or quadruplicate.

c-Src kinase domain [3] = biological target: T1, c-Src kinase domain; assay: pTyr-Var library bacterial peptide display kinase screen (enrichment scores); type: biochemical;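 as to screen: log2 fold change in enrichment of variant over reference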
c-Src SH2 domain = c-Src SH2 domain (Homo sapiens, UniProt P12931); assay: pTyr-Var library SH2 domain screen with SH2-dynabeads (enrichment scores); conditions: sheet c-Src
EPHB1 kinase domain = assay: pTyr-Var library bacterial peptide display kinase screen (enrichment scores); type: biochemical, human
Grb2 SH2 domain = assay: pTyr-Var library SH2 domain screen with SH2-dynabeads (enrichment scores)
FGFR1 kinase domain = assay: pTyr-Var library bacterial peptide display kinase screen (enrichment scores); type: biochemical, human
[4] = tested on: 4G10 Platinum pan-phosphotyrosine antibody; assay: Phosphorylated pTyr-Var library selection with biotinylated pan-phosphotyrosine antibody; type: binding, mouse; conditions: enrichment score, sheet SH2-vs-peptide
Procedure: After the desired time of library phosphorylation, kinase activity was quenched with 25 mM EDTA and the cells were washed with PBS containing 0.2% BSA. Kinase-treated cells were then labeled with a 1:1000 dilution of biotinylated 4G10 Platinum anti-phosphotyrosine antibody (Millipore) for an hour on ice and washed with PBS containing 0.1% BSA and 2 mM EDTA (isolation buffer). The cells were finally resuspended in PBS containing 0.1% BSA. The phosphorylated, antibody-labeled cells were then mixed with magnetic beads from Dynabeads FlowComp Flexi kit (Invitrogen), at a ratio of 37.5 μL of washed beads per 50 μL of cell suspension, diluted into 450 μL of isolation buffer. The suspension was rotated at 4 °C for 30 minutes, then 375 μL of isolation buffer was added and the beads were separated from the bulk solution on a magnetic rack. The beads were washed once with 1 mL of isolation buffer, and then the supertantant were removed by aspiration. […] The bead/lysate mixture was centrifuged to pellet the beads and the mixture was stored at -20 °C.

AncSZ kinase domain = assay: pTyr-Var library bacterial peptide display kinase screen (enrichment scores); type: biochemical
EPHB2 kinase domain = assay: as above; type: biochemical, human
Fyn kinase domain = assay: as above; type: biochemical, human
FGFR3 kinase domain = assay: as above; type: biochemical, human
MERTK kinase domain = assay: as above; type: biochemical, human
c-Abl kinase domain = biological target: T2, c-Abl kinase domain (Mus musculus, UniProt P00520); assay: as above; type: biochemical
T2 sequence (P00520 242-493 limits assumed): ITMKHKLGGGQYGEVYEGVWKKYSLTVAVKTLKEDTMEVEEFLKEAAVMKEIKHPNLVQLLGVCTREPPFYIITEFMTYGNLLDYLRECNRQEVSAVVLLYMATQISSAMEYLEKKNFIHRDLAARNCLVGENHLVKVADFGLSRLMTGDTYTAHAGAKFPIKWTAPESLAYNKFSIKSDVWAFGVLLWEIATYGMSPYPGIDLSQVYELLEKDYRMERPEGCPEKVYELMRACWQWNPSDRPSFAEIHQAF

Hck kinase domain = assay: as above; type: biochemical, human
Fes = assay: as above; type: biochemical; conditions: mean of log2 of enrichment over R1-R6
SHP2 C-SH2 domain = assay: pTyr-Var library SH2 domain screen with SH2-dynabeads (enrichment scores)
Fer kinase domain = assay: pTyr-Var library bacterial peptide display kinase screen (enrichment scores); type: biochemical, mouse
Jak2 = assay: as above; type: biochemical, human
[5] = biological target: human c-Src kinase domain (residues 260-528) (human) (UniProt P12931)
[6] = ADP-Quest assay, c-Src kinase domain 10 nM, 100 μM ATP, 37 °C, three to five replicates, error = standard error of global Michaelis-Menten fit
[7] = mean of log2 enrichment of reference peptide, n = 4
[8] = pTyr-Var library, reference peptide enrichment, mean of n = 4
[9] = mean of log2 enrichment of reference peptide, n = 5
[10] = pTyr-Var library, reference peptide enrichment, mean of n = 5
[11] = pTyr-Var library, enrichment score, replicate 1
[12] = pTyr-Var library, enrichment score, replicate 3
[13] = pTyr-Var library, enrichment score, replicate 4
[14] = mean of log2 of enrichment over R1-R4

Km (c-Src kinase domain [1]; [6]): 8 ± 4 µM | kcat (c-Src kinase domain [1]; [6]): 0.4±0.1 s^–1 | phosphorylation of consensus peptide by c-Src (initial rate relative to cognate consensus) (c-Src kinase domain [1]; low concentration: peptide 20 μM, kinase 10–50 nM, Figure 2—figure supplement 2): significant off-target activity
Molecule: Ac-GPDEPIYEWWWIKKKG-NH2 [Fer Consensus, Fer consensus substrate peptide from X5-Y-X5 screen]

Molecule: Ac-SGDINYGQFAQ-NH2 [PLCG1_Y210_T209N, pTyr-Var library variant phosphosite peptide]
Phosphorylation Rate (c-Src kinase domain [2]): 0.307 s⁻¹ | Screen (c-Src kinase domain [3]; sheet "Src", variant peptide versus its reference peptide in the pTyr-Var library screen): -3.177

mean of log2(reference) (c-Src SH2 domain; mean of log2 enrichment of reference peptide, R1-R3): -1.13 | ref. mean (c-Src SH2 domain; reference peptide, mean of R1-R3): 0.4875 | mean of log2(reference) (EPHB1 kinase domain; [7]): -0.6213 | ref. mean (EPHB1 kinase domain; [8]): 0.6707 | mean of log2(reference) (FGFR1 kinase domain; [9]): -0.9619 | ref. mean (FGFR1 kinase domain; [10]): 0.5188 | AncSZ mean of log2(enrichment) (AncSZ kinase domain; mean of log2 of enrichment over R1-R5): -0.07806 | AncSZ enrich. R1 (AncSZ kinase domain; [11]): 1.096 | AncSZ enrich. R3 (AncSZ kinase domain; [12]): 1.043 | AncSZ enrich. R4 (AncSZ kinase domain; [13]): 0.9321 | AncSZ enrich. R5 (AncSZ kinase domain; pTyr-Var library, enrichment score, replicate 5): 0.7233 | mean of log2(reference) (EPHB2 kinase domain; [7]): -0.9971 | ref. mean (EPHB2 kinase domain; [8]): 0.5335 | Fyn mean of log2(enrichment) (Fyn kinase domain; [14]): -1.315 | Fyn enrich. R1 (Fyn kinase domain; [11]): 0.792 | Fyn enrich. R3 (Fyn kinase domain; [12]): 0.3214 | Fyn enrich. R4 (Fyn kinase domain; [13]): 0.1749 | mean of log2(reference) (FGFR3 kinase domain; [9]): -0.5381 | ref. mean (FGFR3 kinase domain; [10]): 0.7165 | mean of log2(reference) (MERTK kinase domain; [7]): -1.387 | ref. mean (MERTK kinase domain; [8]): 0.3952 | c-Abl mean of log2(enrichment) (c-Abl kinase domain; [14]): -0.4566 | c-Abl enrich. R1 (c-Abl kinase domain; [11]): 0.7622 | c-Abl enrich. R3 (c-Abl kinase domain; [12]): 0.701 | c-Abl enrich. R4 (c-Abl kinase domain; [13]): 0.6553 | Hck mean of log2(enrichment) (Hck kinase domain; mean of log2(variant) / mean of log2(reference), R1-R4): 0.5689 | Hck enrich. R1 (Hck kinase domain; [11]): 0.9245 | Hck enrich. R3 (Hck kinase domain; [12]): 0.4813 | Hck enrich. R4 (Hck kinase domain; [13]): 0.2133 | Fes mean of log2(enrichment) (Fes): 0.1816 | c-Src mean of log2(enrichment) (c-Src kinase domain [3]; [14]): -1.224 | c-Src enrich. R1 (c-Src kinase domain [3]; [11]): 0.458 | c-Src enrich. R3 (c-Src kinase domain [3]; [12]): 0.3437 | c-Src enrich. R4 (c-Src kinase domain [3]; [13]): 0.4348 | Fer mean of log2(enrichment) (Fer kinase domain; [14]): -1.082 | Fer enrich. R1 (Fer kinase domain; [11]): 0.5665 | Fer enrich. R3 (Fer kinase domain; [12]): 0.4786 | Fer enrich. R4 (Fer kinase domain; [13]): 0.5652 | Jak2 mean of log2(enrichment) (Jak2; mean of log2 of enrichment over R1-R3): 0.02155 | Jak2 enrich. R1 (Jak2; [11]): 0.9714 | Jak2 enrich. R3 (Jak2; [12]): 1.09
Molecule: DRVALYIAREG [AACS_Y117]
mean of log2(reference) (Grb2 SH2 domain; Grb2 SH2, mean of log2 enrichment of reference, R1-R3): -0.1768 | ref. mean (Grb2 SH2 domain; reference peptide enrichment score, Grb2 SH2, mean of R1-R3): 0.8958 | 4G10 (mean) [4]: 0.8696 | mean of log2(reference) (SHP2 C-SH2 domain; SHP2-C SH2, mean of log2 enrichment of reference, R1-R3): -0.1513 | ref. mean (SHP2 C-SH2 domain; reference peptide enrichment score, SHP2-C SH2, mean of R1-R3): 0.928

B1: Fer Consensus peptide Ac-…-NH2 (peptide)
peptide: Ac-GPDEPIYEWWWIKKKG-NH2
KM (μM) of phosphorylation, Michaelis-Menten analysis, ADP-Quest assay [5]: 8 µM
